Test results published in US20110224135A1 (priority 2008, published 2011).

B1: Conkunitzin-S1 (peptide)
chain: KDRPSLCDLPADSGSGTKAEKRIYYNSARKQCLRFDYTGQGGNENNFRRTYDCQRTCLYT
modifications: not checked

What was measured:
[1] = rat, in vivo
[2] = target: T1, human Kv1.7 channel (human), Q96RP8; assay: cell-based or functional assay
T1 chain: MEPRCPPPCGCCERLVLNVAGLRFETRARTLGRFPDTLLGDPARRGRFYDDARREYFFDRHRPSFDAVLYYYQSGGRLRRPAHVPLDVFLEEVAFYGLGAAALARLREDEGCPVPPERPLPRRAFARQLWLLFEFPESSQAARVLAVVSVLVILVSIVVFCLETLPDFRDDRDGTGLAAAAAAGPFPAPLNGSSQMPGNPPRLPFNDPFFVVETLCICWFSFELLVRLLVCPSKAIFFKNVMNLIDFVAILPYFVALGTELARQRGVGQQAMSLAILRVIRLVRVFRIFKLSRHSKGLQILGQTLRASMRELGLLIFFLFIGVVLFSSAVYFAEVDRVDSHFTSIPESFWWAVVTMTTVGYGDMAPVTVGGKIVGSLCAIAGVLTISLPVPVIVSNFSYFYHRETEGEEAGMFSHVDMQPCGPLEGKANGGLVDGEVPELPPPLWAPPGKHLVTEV

[3] = target: T2, mouse Kv1.7 channel (mouse), Q17ST2; assay: cell-based or functional assay
T2 chain: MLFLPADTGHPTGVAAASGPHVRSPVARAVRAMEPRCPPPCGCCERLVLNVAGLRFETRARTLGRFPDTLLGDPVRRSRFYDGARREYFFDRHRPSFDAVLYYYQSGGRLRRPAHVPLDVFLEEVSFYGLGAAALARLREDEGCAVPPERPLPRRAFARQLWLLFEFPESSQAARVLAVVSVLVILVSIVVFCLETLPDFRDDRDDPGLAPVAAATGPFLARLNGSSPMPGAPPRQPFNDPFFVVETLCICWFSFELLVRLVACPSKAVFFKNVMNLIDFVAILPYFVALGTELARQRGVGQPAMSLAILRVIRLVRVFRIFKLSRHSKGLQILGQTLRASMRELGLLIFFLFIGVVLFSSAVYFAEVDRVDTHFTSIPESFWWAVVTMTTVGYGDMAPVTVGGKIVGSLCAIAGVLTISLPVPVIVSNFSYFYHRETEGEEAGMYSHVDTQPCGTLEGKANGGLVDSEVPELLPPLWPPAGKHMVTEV

Row | Molecule | AUC calculated from the glucose profiles [1] [g·min/L] | AUC of the insulin profiles [1] [ng·min/mL] | Glucose-induced blood glucose increase [1] | IC50 of block of channel currents (HEK-293 cells) [2] [nM] | IC50 of block of channel currents (two electrode voltage clamp, Xenopus oocytes) [3] [nM]
1 | COc1ccc(Cl)cc1C(=O)NCCc1ccc(S(=O)(=O)NC(=O)NC2CCCCC2)cc1 [glibenclamide] | 79 ± 7 | 310 ± 35 | reduction of the glucose-induced glucose increase | – | –
2 | B1 | – | – | – | 445 | 122
